Assay results published in ChEMBL document CHEMBL1134330, “Synthesis, in vitro pharmacology, and molecular modeling of syn-huprines as acetylcholinesterase inhibitors” (J Med Chem, 2001).

How the values were obtained:
Acetylcholinesterase [1] = molecular target: Acetylcholinesterase (Homo sapiens, UniProt P22303); experiment: In vitro inhibitory concentration against acetylcholinesterase of human erythrocytes
Cholinesterase = Cholinesterase (Homo sapiens, UniProt P06276)
Description: In vitro inhibitory concentration against BChE of human serum

Acetylcholinesterase [2] = molecular target: T1, Acetylcholinesterase (Bos taurus, UniProt P23795)
T1 sequence (P23795 whole entry): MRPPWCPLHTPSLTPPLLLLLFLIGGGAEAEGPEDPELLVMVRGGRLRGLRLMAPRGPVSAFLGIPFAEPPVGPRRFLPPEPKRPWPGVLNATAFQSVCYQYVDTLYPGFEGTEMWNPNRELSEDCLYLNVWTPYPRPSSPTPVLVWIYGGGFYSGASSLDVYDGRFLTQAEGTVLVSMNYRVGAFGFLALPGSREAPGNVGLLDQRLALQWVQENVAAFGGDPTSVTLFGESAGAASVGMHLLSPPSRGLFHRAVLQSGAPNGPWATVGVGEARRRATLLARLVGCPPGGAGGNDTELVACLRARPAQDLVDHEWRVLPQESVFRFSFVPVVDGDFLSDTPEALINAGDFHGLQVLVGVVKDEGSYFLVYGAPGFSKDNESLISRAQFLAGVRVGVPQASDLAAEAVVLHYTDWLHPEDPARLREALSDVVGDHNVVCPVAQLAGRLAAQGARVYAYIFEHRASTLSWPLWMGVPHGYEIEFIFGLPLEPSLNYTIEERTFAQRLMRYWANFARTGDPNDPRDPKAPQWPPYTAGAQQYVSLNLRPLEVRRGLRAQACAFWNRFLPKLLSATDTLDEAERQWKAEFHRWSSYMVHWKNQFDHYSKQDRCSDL
Description: In vitro inhibitory concentration against bovine acetylcholinesterase enzyme

Chain of Acetylcholinesterase (Homo sapiens, UniProt P22303) (P22303 whole entry): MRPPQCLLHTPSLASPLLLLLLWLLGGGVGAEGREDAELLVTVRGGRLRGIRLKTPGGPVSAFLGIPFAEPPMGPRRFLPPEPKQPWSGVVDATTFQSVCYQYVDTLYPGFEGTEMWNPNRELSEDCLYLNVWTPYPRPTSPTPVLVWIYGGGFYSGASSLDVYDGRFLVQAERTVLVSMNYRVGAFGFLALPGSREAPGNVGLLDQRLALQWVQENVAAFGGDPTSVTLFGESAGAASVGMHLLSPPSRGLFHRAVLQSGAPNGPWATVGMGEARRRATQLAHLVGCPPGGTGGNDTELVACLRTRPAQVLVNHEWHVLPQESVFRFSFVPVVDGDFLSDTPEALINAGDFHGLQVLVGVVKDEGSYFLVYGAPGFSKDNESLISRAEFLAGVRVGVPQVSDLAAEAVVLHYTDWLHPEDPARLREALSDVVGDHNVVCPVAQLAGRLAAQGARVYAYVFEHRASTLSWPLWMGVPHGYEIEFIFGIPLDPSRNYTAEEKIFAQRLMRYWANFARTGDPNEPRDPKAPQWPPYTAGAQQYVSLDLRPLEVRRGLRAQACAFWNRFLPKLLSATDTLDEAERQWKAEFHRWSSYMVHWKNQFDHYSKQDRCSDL
Chain of Cholinesterase (P06276 whole entry): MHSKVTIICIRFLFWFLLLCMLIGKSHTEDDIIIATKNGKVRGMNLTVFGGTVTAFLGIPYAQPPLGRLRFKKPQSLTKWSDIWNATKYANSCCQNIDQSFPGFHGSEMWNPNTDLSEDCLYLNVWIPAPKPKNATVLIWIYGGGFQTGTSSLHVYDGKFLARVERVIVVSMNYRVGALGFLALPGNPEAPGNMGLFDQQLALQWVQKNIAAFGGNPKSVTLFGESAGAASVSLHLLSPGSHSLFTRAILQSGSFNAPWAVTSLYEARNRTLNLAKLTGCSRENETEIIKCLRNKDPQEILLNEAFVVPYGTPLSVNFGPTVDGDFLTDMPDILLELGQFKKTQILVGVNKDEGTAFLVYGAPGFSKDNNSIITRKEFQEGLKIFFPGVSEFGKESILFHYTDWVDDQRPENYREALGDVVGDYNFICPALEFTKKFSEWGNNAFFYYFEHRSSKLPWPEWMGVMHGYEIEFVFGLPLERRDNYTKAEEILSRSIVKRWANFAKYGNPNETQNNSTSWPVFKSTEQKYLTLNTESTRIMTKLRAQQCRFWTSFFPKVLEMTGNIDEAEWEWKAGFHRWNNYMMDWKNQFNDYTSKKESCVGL

Compound: CC1=CC2CC(C1)Cc1nc3ccccc3c(N)c12 (racemic)
- IC50 (Acetylcholinesterase [1]): 0.436 µM
- IC50 (Cholinesterase): 0.148 µM

Compound: CC1=CC2Cc3nc4ccccc4c(N)c3C(C1)C2 (racemic)
- IC50 (Acetylcholinesterase [1]): 0.0516 µM

Compound: CCC1=CC2Cc3nc4ccccc4c(N)c3C(C1)C2 (racemic)
- IC50 (Acetylcholinesterase [1]): 0.0378 µM

Compound: CCC1=CC2CC(C1)Cc1nc3ccccc3c(N)c12 (racemic)
- IC50 (Acetylcholinesterase [1]): 0.0769 µM
- IC50 (Acetylcholinesterase [2]): 0.165 µM
- IC50 (Cholinesterase): 0.063 µM
